US10597388B2, “Pyridazinone herbicides” (FMC CORPORATION, priority 2014, dated 2020)

Key:
Assay type in all cases: in vivo
[1] = system: ryegrass, Italian (Italian ryegrass, Lolium multiflorum); assay: Test C greenhouse herbicide test, pre- and postemergence
Procedure, shortened: (§1)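 Percent-control ratings (0 none, 100 complete) came from visual comparison with controls held alongside in the greenhouse for 13–15 d. Treatments covered soil application at sowing and foliar application to young plants 2–18 cm tall.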

[2] = system: crabgrass, large (large crabgrass, Digitaria sanguinalis); assay: as above
Procedure, shortened: as §1

[3] = system: lambsquarters (Chenopodium album); assay: as above
Procedure, shortened: as §1

[4] = system: oilseed rape (Brassica napus); assay: as above
Procedure, shortened: as §1

[5] = system: galium (catchweed bedstraw, Galium aparine); assay: as above
Procedure, shortened: as §1

[6] = system: morningglory (Ipomoea coccinea); assay: as above
Procedure, shortened: as §1

[7] = system: johnsongrass (Sorghum halepense); assay: as above
Procedure, shortened: as §1

[8] = system: ragweed (common ragweed, Ambrosia elatior); assay: as above
Procedure, shortened: as §1

[9] = system: foxtail, giant (giant foxtail, Setaria faberii); assay: as above
Procedure, shortened: as §1

[10] = system: wheat (winter wheat, Triticum aestivum); assay: as above
Procedure, shortened: as §1

[11] = system: barnyardgrass (Echinochloa crus-galli); assay: as above
Procedure, shortened: as §1

[12] = system: galium (catchweed bedstraw, Galium aparine); assay: Test A greenhouse herbicide test, postemergence
Procedure, shortened: (§2)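 Seedlings in a loam soil and sand mix received formulated compound postemergence at the one- to two-leaf stage. Greenhouse holding lasts approximately 10 d, then injury is scored visually relative to untreated plants, 0 meaning no effect and 100 complete control.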

[13] = system: blackgrass (Alopecurus myosuroides); assay: Test A greenhouse herbicide test, postemergence
Procedure, shortened: as §2

[14] = Postemergence, 125 g ai/ha, scale 0 to 100, 0 is no effect, 100 is complete control
[15] = Postemergence, 250 g ai/ha, scale 0 to 100, 0 no effect, 100 complete control, 13 to 15 d
[16] = Preemergence, 31 g ai/ha, scale 0 to 100, 0 is no effect, 100 is complete control
[17] = Preemergence, 62 g ai/ha, scale 0 to 100, 0 is no effect, 100 is complete control
[18] = Preemergence, 125 g ai/ha, scale 0 to 100, 0 is no effect, 100 is complete control
[19] = Preemergence, 250 g ai/ha, scale 0 to 100, 0 no effect, 100 complete control
[20] = postemergence, 62 g ai/ha, scale 0 to 100, 0 no effect, 100 complete control
[21] = 125 g ai/ha, 0 to 100 scale where 0 is no effect and 100 is complete control

For `CC(=O)Oc1c(C)nn(C)c(=O)c1-c1c(C)cc(C)c2ccccc12` [Compound 99], the “Plant response rating, Ryegrass, Italian” value [1, 14] was 95, the “Plant response rating, Ryegrass, Italian” value [1, 15] was 95 and the “Plant response rating, Ryegrass, Italian” value [1, 16] was 90. For the same molecule, the “Plant response rating, Ryegrass, Italian” value [1, 17] was 90, the “Plant response rating, Ryegrass, Italian” value [1, 18] was 100 and the “Ryegrass, Italian plant response rating” value [1, 19] was 100. For the same molecule, the “Ryegrass, Italian plant response rating” value [1, 20] was 90, the “Plant response rating, Crabgrass, Large” value [2, 14] was 30 and the “Plant response rating, Crabgrass, Large” value [2, 15] was 50. The “Plant response rating, Crabgrass, Large” value [2, 16] was 30, the “Plant response rating, Crabgrass, Large” value [2, 17] was 35 and the “Plant response rating, Crabgrass, Large” value [2, 18] was 60. For the same molecule, the “Crabgrass, Large plant response rating” value [2, 19] was 80, the “Crabgrass, Large plant response rating” value [2, 20] was 20 and the “Plant response rating, Lambsquarters” value [3, 14] was 85. For the same molecule, the “Plant response rating, Lambsquarters” value [3, 15] was 98, the “Plant response rating, Lambsquarters” value [3, 16] was 25 and the “Plant response rating, Lambsquarters” value [3, 17] was 80. For the same molecule, the “Plant response rating, Lambsquarters” value [3, 18] was 100, the “Lambsquarters plant response rating” value [3, 19] was 95 and the “Lambsquarters plant response rating” value [3, 20] was 75. The “Plant response rating, Oilseed Rape” value [4, 14] was 60, the “Plant response rating, Oilseed Rape” value [4, 15] was 55 and the “Plant response rating, Oilseed Rape” value [4, 16] was 0. The “Plant response rating, Oilseed Rape” value [4, 17] was 40, the “Plant response rating, Oilseed Rape” value [4, 18] was 90 and the “Oilseed Rape plant response rating” value [4, 19] was 98. For the same molecule, the “Oilseed Rape plant response rating” value [4, 20] was 5, the “Plant response rating, Galium” value [5, 14] was 98 and the “Plant response rating, Galium” value [5, 15] was 98. For the same molecule, the “Plant response rating, Galium” value [5, 18] was 98, the “Galium plant response rating” value [5, 19] was 98 and the “Galium plant response rating” value [5, 20] was 95. The “Plant response rating, Morningglory” value [6, 14] was 100, the “Plant response rating, Morningglory” value [6, 15] was 100 and the “Plant response rating, Morningglory” value [6, 16] was 80. The “Plant response rating, Morningglory” value [6, 17] was 85, the “Plant response rating, Morningglory” value [6, 18] was 90 and the “Morningglory plant response rating” value [6, 19] was 95. For the same molecule, the “Morningglory plant response rating” value [6, 20] was 95, the “Plant response rating, Johnsongrass” value [7, 14] was 10 and the “Plant response rating, Johnsongrass” value [7, 15] was 5. For the same molecule, the “Plant response rating, Johnsongrass” value [7, 16] was 0, the “Plant response rating, Johnsongrass” value [7, 17] was 0 and the “Plant response rating, Johnsongrass” value [7, 18] was 0. The “Johnsongrass plant response rating” value [7, 19] was 20, the “Johnsongrass plant response rating” value [7, 20] was 10 and the “Plant response rating, Ragweed” value [8, 14] was 95. For the same molecule, the “Plant response rating, Ragweed” value [8, 15] was 100, the “Plant response rating, Ragweed” value [8, 16] was 70 and the “Plant response rating, Ragweed” value [8, 17] was 90. The “Plant response rating, Ragweed” value [8, 18] was 95, the “Ragweed plant response rating” value [8, 19] was 95 and the “Ragweed plant response rating” value [8, 20] was 90. The “Plant response rating, Foxtail, Giant” value [9, 14] was 30, the “Plant response rating, Foxtail, Giant” value [9, 15] was 50 and the “Plant response rating, Foxtail, Giant” value [9, 16] was 40. For the same molecule, the “Plant response rating, Foxtail, Giant” value [9, 17] was 35, the “Plant response rating, Foxtail, Giant” value [9, 18] was 65 and the “Foxtail, Giant plant response rating” value [9, 19] was 90. For the same molecule, the “Foxtail, Giant plant response rating” value [9, 20] was 15, the “Plant response rating, Wheat” value [10, 14] was 10 and the “Plant response rating, Wheat” value [10, 15] was 10. The “Plant response rating, Wheat” value [10, 16] was 0, the “Plant response rating, Wheat” value [10, 17] was 0 and the “Plant response rating, Wheat” value [10, 18] was 30. The “Wheat plant response rating” value [10, 19] was 65, the “Wheat plant response rating” value [10, 20] was 0 and the “Barnyardgrass plant response rating” value ([11]; Postemergence, 31 g ai/ha, 0 to 100 scale (0 no effect, 100 complete control)) was 25. For the same molecule, the “Plant response rating, Barnyardgrass” value [11, 14] was 35, the “Plant response rating, Barnyardgrass” value [11, 15] was 35 and the “Plant response rating, Barnyardgrass” value [11, 16] was 5. The “Plant response rating, Barnyardgrass” value [11, 17] was 15, the “Plant response rating, Barnyardgrass” value [11, 18] was 55 and the “Barnyardgrass plant response rating” value [11, 19] was 85. For the same molecule, the “Barnyardgrass plant response rating” value [11, 20] was 25, the “Plant response rating, Galium” value [12, 21] was 100 and the “Plant response rating, Galium” value ([12]; 500 g ai/ha, visual rating after approx. 10 d, 0 to 100 scale (0 no effect, 100 complete control)) was 100. For the same molecule, the “Plant response rating, Blackgrass” value [13, 21] was 60 and the “Blackgrass plant response rating” value ([13]; 500 g ai/ha, 0 to 100 scale, 0 is no effect, 100 is complete control) was 80.
